For this experiment, the system named is L1210 cells. In words: Nucleoside transport inhibition assay: inhibition of 3H-thymidine uptake, with or without AGP or HSA. In kind it is cell-based, murine. To be noted: for inhibition at 10 µM: L1210, 10 μM compound; for inhibition at 100 µM: L1210, 100 μM compound; for inhibition at 1 µM: L1210, 1 μM compound; for inhibition at 50 µM: L1210, 50 μM compound. The procedure: In vitro activity. […] For testing the compounds an established nucleoside transport assay involving measurement of thymidine uptake was adapted. Murine leukaemia L1210 cells were used in this assay as their nucleoside transport characteristics are well known. This assay for measuring thymidine uptake used a modification of the rapid mixing technique of Wohleheuter, R. […] Materials used included a transport buffer comprising 130 mM NaCl, 5 mM KC1, 1 mM MgCl, 5 mM NaH2 PO4, 10 mM glucose and 10 mM HEPES. This buffer was made up as sterile 5× concentrate and reconstituted in distilled water and adjusted to pH 7.4 immediately prior to carrying out the assay. […] The supernatant was aspirated and the cells were washed with ice-cold transport buffer and centrifuged again at 1000 rpm for 5 minutes at 4° C. The supernatant was removed and the cells were resuspended in ice-cold transport buffer to give a final cell density of 2-4×10^7 cells/mi. Cells were left on ice for 30 minutes recovery prior to starting the assay. […] The suspension was mixed well and 100 μl was layered onto 150 μl silicone oil (9:11 Dow Corning 556 (Sp.Gr. 0.98):Dow Corning 550 (Sp.Gr. 1.068) (final Sp.Gr. 1.028) overlaying 50 μl 3M KOH in 6 replicate 0.5 ml microfuge tubes. […] The tubes were immediately transferred to a microfuge (Eppendorf) and spun at 12000 rpm for 2 minutes to pellet the cells through the oil and into the KOH. The tubes were capped and the cells left to solubilise in the KOH for 1 hour. Cell number and viability for each run was determined by haemocytometer counting using trypan blue exclusion. […] The tubes were capped and cut in the oil layer such that the bottom portion (cells solubilised in KOH) fell into a 20 ml scintillation vial. 1 ml 0.25M acetic acid followed by 1 ml air was injected into the tube using a 2 ml syringe and 23-gauge needle to disperse and neutralise the KOH-solubilisedcells. 10 ml of Optiphase HiSafe™ scintillant was added and the vials capped and shaken. […] The [^14 C]:[^3 H] ratio was used to calculate the amount of non-transported contaminating [^3 H]thymidine in the extracellular space.

[1] abbreviates: Mus musculus, no AGP, read-out: % Inhibition of 3H-thymidine uptake, No AGP.
[2] abbreviates: Mus musculus, no AGP, 5% DMSO, read-out: % Inhibition of 3H-thymidine uptake, No AGP (5% DMSO).
Where [3] appears, read: 50 μM compound, no AGP, 5% DMSO, 50 µM.
Where [4] appears, read: Mus musculus, +5 mg/ml AGP vs no AGP, read-out: % Reduction (of inhibition by AGP).
Setting [5] is: Mus musculus, +5 mg/ml AGP, read-out: % Inhibition of 3H-thymidine uptake, +5 mg/ml AGP.

The values that follow come from US6297250A, “Pyrimidopyrimidine compounds” (Newcastle University Ventures Limited, priority 1997, dated 2001).

By IC50 is commonly meant the concentration at which inhibition is half-maximal. A low value points to greater potency in that assay.

Read-outs that look alike come from different tables or passages of the source.

For the compound `CCCOc1nc(N2CCCCC2)c2nc(OCCC)nc(N3CCCCC3)c2n1` [NU3064, 2,6-Di(n)propoxy-4,8-dipiperidinopyrimidopyrimidine], under setting [1], the inhibition at 10 µM worked out at 37 ± 11% and the inhibition at 100 µM came to 60 ± 9%. This compound registered an IC50 (Mus musculus, L1210, no AGP) of 52000 nM.
With `CCOC(C)(COc1nc(N2CCCCC2)c2nc(OCC(C)(OCC)OCC)nc(N3CCCCC3)c2n1)OCC` [NU3065, 2,6-bis(2',2'-Diethylacetal-1-propoxy)-4,8-dipiperidinopyrimidopyrimidine], under setting [1], the inhibition at 1 µM came out at 30 ± 7%, the inhibition at 10 µM was 65 ± 9% and the inhibition at 100 µM stood at 82 ± 16%. This compound also showed an IC50 (Mus musculus, L1210, no AGP) of 4240 nM.
With `CC(=O)COc1nc(N2CCCCC2)c2nc(OCC(C)=O)nc(N3CCCCC3)c2n1` [NU3066, 2,6-Di(-2-oxopropoxy)-4,8-dipiperidinopyrimidopyrimidine], under setting [2], the inhibition at 10 µM was 58 ± 3%.
`COc1nc(N2CCCCC2)c2nc(OC)nc(N3CCCCC3)c2n1` [NU3067, 2,6-Dimethoxy-4,8-dipiperidinopyrimidopyrimidine]: the “% Inhibition of 3H-thymidine uptake, No AGP (5% DMSO)” value (from here on “% Inhibition … No AGP (5% DMSO)”) under setting [3] worked out at 76%. The inhibition at 10 µM under setting [2] was found to be 39 ± 7%. Also, the inhibition at 50 µM (Mus musculus, no AGP, 5% DMSO) was 81%.
For `CCOc1nc(N2CCCCC2)c2nc(OCC)nc(N3CCCCC3)c2n1` [NU3068, 2,6-Diethoxy-4,8-dipiperidinopyrimidopyrimidine], the “% Inhibition … No AGP (5% DMSO)” value under setting [3] amounted to 65%. In addition, the inhibition at 10 µM under setting [2] stood at 35 ± 4%. Where the note is “Mus musculus, no AGP, 5% DMSO”, this compound showed an inhibition at 50 µM of 74%.
As to `CC(C)Oc1nc(N2CCCCC2)c2nc(OC(C)C)nc(N3CCCCC3)c2n1` [NU3069, 2,6-Di-iso-propoxy-4,8-dipiperidinopyrimidopyrimidine], under setting [2], the inhibition at 10 µM is 23 ± 12% and the inhibition at 100 µM turned out to be 64 ± 6%.
Take `CC(C)CCOc1nc(N2CCCCC2)c2nc(OCCC(C)C)nc(N3CCCCC3)c2n1` [NU3070, 2,6-Di-(3'-methylbutoxy)-4,8-dipiperidinopyrimidopyrimidine]: where the note is “10 μM compound, no AGP, 5% DMSO, 10 µM”, the “% Inhibition … No AGP (5% DMSO)” value is 51%. Moreover, under setting [2], the inhibition at 10 µM turned out to be 46%.
In the case of `CC(C)COc1nc(N2CCCCC2)c2nc(OCC(C)C)nc(N3CCCCC3)c2n1` [NU3071, 2,6-Di-(2'-methylpropoxy)-4,8-dipiperidinopyrimidopyrimidine], under setting [2], the inhibition at 10 µM worked out at 25 ± 4% and the inhibition at 100 µM is 65 ± 4%.
As for `C=CCOc1nc(N2CCCCC2)c2nc(OCC=C)nc(N3CCCCC3)c2n1` [NU3072, 2,6-Di-allyloxy-4,8-dipiperidinopyrimidopyrimidine], for the setting “100 μM compound, no AGP, 5% DMSO, 100 µM”, the “% Inhibition … No AGP (5% DMSO)” value came to 63%. Under setting [2], the inhibition at 10 µM worked out at 52 ± 7% and the inhibition at 100 µM was 66%.
As to `COCC(C)Oc1nc(N2CCCCC2)c2nc(OC(C)COC)nc(N3CCCCC3)c2n1` (stereo not drawn) [NU3074, 2,6-Di(1'-methoxy-2'-methyl)ethoxy-4,8-dipiperidinopyrimidopyrimidine], under setting [1], the inhibition at 10 µM turned out to be 62 ± 10% and the inhibition at 100 µM is 96 ± 7%.
For `CC(O)COc1nc(N2CCCCC2)c2nc(OCC(C)O)nc(N3CCCCC3)c2n1` (stereo not drawn) [NU3077, 2,6-Di(2'-hydroxypropoxy)-4,8-dipiperidinopyrimidopyrimidine], the “% Inhibition of 3H-thymidine uptake, No AGP” value (1 μM compound, no AGP, 1 µM) is on record as 44 ± 8%. Moreover, the inhibition at 1 µM under setting [4] stood at 55%, the inhibition at 1 µM under setting [5] was 20 ± 10% and the inhibition at 1 µM under setting [1] was found to be 47 ± 8%. Also, the inhibition at 10 µM came to 25% under setting [4], 69 ± 9% under setting [5] and 92 ± 10% under setting [1]. The IC50 by setting is: (Mus musculus, L1210, no AGP) 900 nM; (no AGP) 1130 nM. Further, the “Effect of AGP on the inhibition of thymidine uptake” value (in words) is reported as “no significant reduction”.
For `CC1(C)OC[C@@H](COc2nc(NCc3ccccc3)c3nc(OC[C@@H]4COC(C)(C)O4)nc(NCc4ccccc4)c3n2)O1` [NU3078, (R,R)-2,6-bis(2',2'-Dimethyl-1',3'-dioxolane-4'-methoxy)-4,8-dibenzylamino pyrimidopyrimidine], for the setting “10 μM compound, no AGP”, the “% Inhibition of 3H-thymidine uptake, No AGP” value is recorded as 46 ± 3%.
